Assay results from PMC3750730 (Neuroscience letters, 2013).

Assays:
[1] = Rat weight during seven days of daily treatment; assay type: in vivo, rats; conditions: Cpd-60 22.5 mg/kg, CI-994 5 mg/kg, vs vehicle-treated controls
[2] = target: class II HDAC enzyme subtypes; assay: In vitro HDAC deacetylase activity assay; assay type: biochemical; conditions: read-out: IC50 class II HDAC enzyme subtypes; recombinant human HDACs
[3] = test system: brain glucose; conditions: rats treated with fluoxetine; cited from earlier work
[4] = test system: rats; conditions: rats treated with fluoxetine; cited from earlier work

Row | SMILES | effect on rat weight over seven days [1] | IC50 [2] [µM] | brain glucose changes [3] | behavioral effects in the forced swim test [4]
1 | CC(=O)Nc1ccc(C(=O)Nc2ccccc2N)cc1 [CI-994] | did not significantly affect rat weight | > 33 |  | 
2 | CNCCC(Oc1ccc(C(F)(F)F)cc1)c1ccccc1 (stereo not shown) [fluoxetine] |  |  | 4–14% | antidepressant behavioral effects
